IC50, EC50 and CC50 data for 33 molecules are collected here from ChEMBL document CHEMBL1201862, “PubChem BioAssay data set” (2004).

Assay [1] concerns the target T1, Rac GTPase-activating protein 1 (Homo sapiens, UniProt Q9H0H5).
T1 sequence (Q9H0H5 whole entry): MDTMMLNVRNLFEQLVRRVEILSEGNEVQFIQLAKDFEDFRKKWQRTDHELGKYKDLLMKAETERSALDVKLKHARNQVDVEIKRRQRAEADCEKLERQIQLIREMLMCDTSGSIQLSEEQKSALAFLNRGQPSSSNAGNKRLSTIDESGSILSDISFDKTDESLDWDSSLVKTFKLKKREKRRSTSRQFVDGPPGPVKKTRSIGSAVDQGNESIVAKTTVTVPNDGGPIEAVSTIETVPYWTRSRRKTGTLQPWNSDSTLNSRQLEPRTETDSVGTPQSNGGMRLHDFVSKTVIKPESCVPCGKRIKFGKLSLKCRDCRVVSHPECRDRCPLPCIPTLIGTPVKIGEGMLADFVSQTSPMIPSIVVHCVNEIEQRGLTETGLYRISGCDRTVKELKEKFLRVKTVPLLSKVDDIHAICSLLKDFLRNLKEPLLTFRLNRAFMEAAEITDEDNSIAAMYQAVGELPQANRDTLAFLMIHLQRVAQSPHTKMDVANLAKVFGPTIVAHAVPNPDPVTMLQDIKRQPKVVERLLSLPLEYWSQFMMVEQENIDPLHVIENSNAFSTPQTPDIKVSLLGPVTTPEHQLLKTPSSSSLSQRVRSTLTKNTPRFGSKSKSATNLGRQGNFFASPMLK
Nature of the assay: blockers of MgcRacGAP-driven Rac1 GTP hydrolysis – biochemical, ADP Hunter fluorescence, primary and confirmatory, confirmation (AID 624330). It is filed as functional.

Assay [2] can be described thus: Luminescence Cell-Based Dose Confirmation HTS to Identify Activators of 5'UTR Stem-Loop Driven Alpha-Synuclein mRNA Translation in H4 Neuroglioblastoma Cells. [Related pubchem assays: 1829 (Project Summary), 1814 (Primary HTS)]. The format is functional.
Assay [3] is described as follows: Luminescence Cell-Based Dose Response HTS to Identify Activators of Luciferase Translation or Activity in H4 […] Cells. [Related pubchem assays: 1829 (Project Summary), 1814 (Primary HTS)]. It is filed as functional.
Another assay has as its system H4. In words: Luminescence Cell-Based Dose Response HTS to Identify Activators of 5'UTR Stem-Loop Driven Prion Protein mRNA Translation in H4 Neuroglioblastoma Cells. [Related pubchem assays: 1829 (Project Summary), 1814 (Primary HTS)]. The format is functional. Conditions: Homo sapiens.
For assay [4], the target named is Luciferin 4-monooxygenase (Photinus pyralis, UniProt P08659). Nature of the assay: inhibition of purified Photinus pyralis luciferase – biochemical, luminescence, dose response (AID 1891).
A short description of assay [5]: Luminescence Cell-Based Dose Confirmation HTS to Identify Inhibitors of Platelet Dense Granule Release. [Related pubchem assays: 1663 (Primary HTS), 1678 (Summary of Project)]. It is filed as functional.
Assay [6] can be described thus: microbe, parasite or virus in culture. It is filed as functional. Conditions: Mycobacterium tuberculosis.
A further assay deals with Streptococcus. In words: GAS UMAA2166 growth inhibition – luminescence, BacTiterGlo, counter-screen for streptokinase expression inhibitor project, dose response (AID 1915).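 Also: potency for reduction of bacterial viability or growth.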 It is filed as functional, organism-based.
The subject of assay [7] is Streptococcus sp. 'group A'. Nature of the assay: Streptococcus pyogenes SK(-)GAS viability under kanamycin – luminescence, BacTiterGlo, confirmation, counter-screen for streptokinase expression inhibitor project, dose response (AID 1900). It is filed as functional, organism-based. Background: Counterscreens check selectivity or assay interference.
Assay [8] can be described thus: viability of HCT116 lacking mutant beta-catenin – cell-based, human colon tumor, dose response (AID 1045).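 Also: HCT116 colon tumor cells with beta catenin knocked out; cells exposed to compound for 60 hours.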 It is filed as functional.
Assay [9] can be described thus: viability of PTEN-deleted HCT116 cells – cell-based, HCT116 PTEN knockout, dose response (AID 1047).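 Also: HCT116 colon tumor cells with PTEN knocked out; cells exposed to compound for 60 hours before readout; potency for loss of cell viability measured by luminescence.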 It is filed as functional.
Assay [10] in a line: viability of uninfected HEp-2 cells – cell-based, HTS, cytotoxicity control for RSV inhibitor project, dose response (AID 2410). The format is functional. Particulars: human respiratory syncytial virus.
Assay [11] can be described thus: NIH-3T3 fibroblast cytotoxicity, dose response, cytotoxicity control, cell-based, fluorescence, Alamar Blue, secondary assay (AID 2327).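 Also: NIH-3T3 mouse fibroblasts cultured with fluconazole at 8 µg/mL.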 The format is functional.
A short description of assay [12]: fluconazole-exposed Candida albicans growth modulators – fluorescence, retest, confirmation (AID 2467). It is filed as functional, cell-based.
Assay [13] is described as follows: NIH3T3 cell viability loss – ATP luminescence, mouse fibroblasts, counter-screen, dose response (AID 2010).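 Also: cells exposed to compound for about 90 hours before reading.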 The format is functional, cell-based.
Assay [14] is described as follows: Trypanosoma cruzi growth suppression in host cells – NIH3T3 host cells, beta-gal luminescence, confirmation (AID 2044).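 Also: intracellular parasites grown in NIH/3T3 mouse fibroblasts as host cells; luminescent beta-galactosidase reporter signal from transgenic T. cruzi replicating inside host cells; inhibitors lower the luminescence signal.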 It is filed as functional, cell-based.
Another assay addresses T2, Streptokinase A (Streptococcus pyogenes serotype M1, UniProt P10520).
T2 sequence (P10520 whole entry): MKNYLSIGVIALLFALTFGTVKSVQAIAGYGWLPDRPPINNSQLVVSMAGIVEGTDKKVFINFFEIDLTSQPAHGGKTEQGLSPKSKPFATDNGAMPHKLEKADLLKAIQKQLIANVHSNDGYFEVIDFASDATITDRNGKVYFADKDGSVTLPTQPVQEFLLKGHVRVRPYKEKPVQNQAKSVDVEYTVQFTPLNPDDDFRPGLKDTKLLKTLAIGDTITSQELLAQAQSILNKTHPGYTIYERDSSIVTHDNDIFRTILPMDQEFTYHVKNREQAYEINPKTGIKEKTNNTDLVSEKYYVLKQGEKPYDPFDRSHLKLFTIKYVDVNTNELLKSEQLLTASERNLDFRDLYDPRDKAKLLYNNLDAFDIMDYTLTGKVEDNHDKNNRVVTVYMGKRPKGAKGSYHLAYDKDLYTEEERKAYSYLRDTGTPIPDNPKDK
In words: viability-normalized secreted streptokinase activity reduction – plasminogen activation absorbance, OD405, dose response (AID 1914).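 Also: secreted streptokinase activity via plasminogen activation per viability signal from cell pellet.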 It is filed as functional, Streptococcus pyogenes M1 GAS.

The target of assay [15] is T3, Ubiquitin-conjugating enzyme E2 N (Homo sapiens, UniProt P61088).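 Also: Dose-response confirmation in a TR-FRET assay detecting UBC13-driven polyubiquitin chain formation, inhibition measured.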
T3 sequence (P61088 whole entry): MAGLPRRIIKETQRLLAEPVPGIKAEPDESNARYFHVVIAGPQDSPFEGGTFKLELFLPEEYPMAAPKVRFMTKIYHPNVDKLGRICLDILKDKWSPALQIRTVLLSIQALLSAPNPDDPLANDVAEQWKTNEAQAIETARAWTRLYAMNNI
It is filed as functional.

The source made the active and inactive calls. Rule as the data show it, for most assays here: actives have a measured EC50 and inactives only a lower limit.

Luciferin 4-monooxygenase, sequence (P08659 whole entry): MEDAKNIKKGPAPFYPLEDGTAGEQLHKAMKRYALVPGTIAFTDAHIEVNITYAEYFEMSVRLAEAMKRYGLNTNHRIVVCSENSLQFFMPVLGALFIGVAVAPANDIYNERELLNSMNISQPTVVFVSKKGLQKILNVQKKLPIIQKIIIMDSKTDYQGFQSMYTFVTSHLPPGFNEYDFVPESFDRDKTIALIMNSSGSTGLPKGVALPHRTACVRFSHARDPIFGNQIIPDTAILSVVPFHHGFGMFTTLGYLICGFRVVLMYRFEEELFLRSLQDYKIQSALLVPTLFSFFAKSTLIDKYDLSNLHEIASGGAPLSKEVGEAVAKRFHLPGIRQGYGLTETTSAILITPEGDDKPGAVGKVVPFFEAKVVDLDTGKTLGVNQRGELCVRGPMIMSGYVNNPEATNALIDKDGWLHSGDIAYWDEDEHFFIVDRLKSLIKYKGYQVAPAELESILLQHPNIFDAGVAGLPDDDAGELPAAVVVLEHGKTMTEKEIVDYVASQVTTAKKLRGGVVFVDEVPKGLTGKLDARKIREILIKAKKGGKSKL

For the molecule `COc1cccc(CNCc2ccco2)c1O`, the half-maximal inhibitory concentration (IC50) in assay [1] was 117 µM (active).

`CCn1cc(SCC(=O)N2CCOCC2)c2ccccc21`: the figures for the EC50 (in [2]; in assay [3]; with H4) were 5.63 µM (active), 82.1 µM (active) and > 120 µM (not active), respectively.

In the case of `N/N=C(\Cc1cscn1)c1ccc(O)cc1O`, the IC50 in [1] is 53.3 µM (active). The concentration for a half-maximal effect (EC50) is > 112 µM (not active) in assay [4] and 62.6 µM (active) in [5].

Consider `C/N=c1\scc(C)n1/N=C/c1cc(Br)c(O)c(Br)c1`, for which the IC50 in [1] is 77 µM (active).

Turning to `O=C(NCc1ccccn1)C(=O)Nc1nc(C23CC4CC(CC(C4)C2)C3)cs1`, in assay [6], the CC50 is 36 µM (active). Moreover, the EC50 was 6.91 µM (active) in the assay with Streptococcus and 1.66 µM (active) in assay [7].

For `O=C(Cn1c(=O)oc2cc(S(=O)(=O)N3CCCCC3)ccc21)N1CCc2ccccc21`, the figures for the EC50 in assay [8] and in [9] were 16.9 µM (active) and 18.4 µM (active), respectively.

For `Cc1cccc2c(N)c3c(nc12)N(C)CC3`, in [1], the IC50 is 115 µM (active).

For the molecule `CN1C(=O)C(CC(=O)Nc2ccccc2F)N(NC(=O)c2ccc(Br)cc2)C1=S` (centres undefined), the CC50 in [10] was 6.39 µM (active).

Take `Cc1ccc(C(=O)N2N=C(c3ccc(NS(C)(=O)=O)cc3)CC2c2cccs2)cc1` (centres undefined): in assay [6], the CC50 was > 40 µM (active).

In the case of `CC(C)c1ccc2c(c1)CCC1C(C)(CN)CCCC21C` (centres undefined), the CC50 in assay [6] is 7.48 µM (active). For the same molecule, the figures for the EC50 in assay [11] and in [12] were 9.63 µM (inconclusive) and > 38 µM (not active), respectively.

Regarding `Cc1ccccc1-c1nnc(SCc2ccccc2)o1`, the EC50 in assay [2] is 7.97 µM (active); in [3] it was 62.5 µM (active).

On to `Nc1ncccc1OCc1ccc(Cl)c(Cl)c1`, for which, in assay [10], the CC50 was 9.61 µM (active).

On to `CCC1=NN2C(=N)/C(=C\c3ccc(OCCOc4ccccc4)c(OC)c3)C(=O)N=C2S1`, for which the EC50 in assay [2] was 9.45 µM (active); in assay [3], 8.4 µM (active); in the assay on H4, 5.43 µM (active).

As to `Cc1ccc(-c2nnc(S)n2/N=C/c2c(C)nn(-c3ccccc3)c2C)cc1`, the EC50 was 26 µM (active) in assay [8] and 25.8 µM (active) in assay [9].

On to `Cc1c(C(=O)OCC(=O)N2C(C)CCCC2C)oc2ccccc12` (centres undefined), for which the 50% effective concentration (EC50) is 14.6 µM (active) in assay [2], 28.7 µM (active) in assay [3] and 72.9 µM (active) with H4.

For the molecule `CC(C)c1ccc2[nH]c(O)c(N=NC(=O)c3cccc(S(=O)(=O)N4CCCCC4)c3)c2c1`, the CC50 in assay [10] was 7.69 µM (active). The concentration giving a half-maximal response (EC50) in assay [13] is > 60 µM (not active); with Streptococcus, 110 µM (active); in [14], 0.58 µM (active); in assay [7], 4.39 µM (active); on Streptokinase A it was > 150 µM (not active).

`Cc1ccc(/C=C/C2=NN(Cc3ccccc3Cl)C(=O)CC2)cc1`: the CC50 in assay [10] is 16.6 µM (active).

For the molecule `CC12CCC(c3c(C(=O)Nc4nccs4)nn(-c4ccccc4)c31)C2(C)C` (centres undefined), the EC50 in assay [8] is 24.2 µM (active); in [9], 38.1 µM (active); in the assay on Streptococcus it was > 150 µM (not active); in assay [7], 6.56 µM (active); on Streptokinase A, 28.5 µM (active).

With `CSC(S)=NCc1cccnc1`, in assay [6], the CC50 was 9.84 µM (active). In addition, the EC50 in assay [11] is > 160 µM (inactive); in [12], 1.13 µM (active).

In the case of `COc1cc(/C=N/NC(=O)CCC(=O)Nc2ccc(F)cc2)ccc1O`, the IC50 in assay [1] was 35.8 µM (active).

Turning to `CCOc1ccc(-c2c(=O)n(OCc3ccc([N+](=O)[O-])cc3)c3ccccc3[n+]2[O-])cc1`, the EC50 (in assay [2]; in assay [3]; with H4) was > 120 µM (not active) each time.

As for `Oc1ccc(Cc2ccc(Cl)cc2)c(O)c1`, the IC50 in [1] is 69.5 µM (active).

Turning to `Cc1cc2cc(C)c3nnc(SCC(=O)Nc4ccc(S(=O)(=O)N5CCCCC5)cc4)n3c2cc1C`, the EC50 in assay [8] is 7.24 µM (active); in assay [9], 7.79 µM (active).

For `CCOC(=O)c1sc(NC(=O)Nc2ccc(Cl)cc2)nc1C`, the EC50 is 80.8 µM (active) in [8] and 63.5 µM (active) in [9].

Consider `COCC(=O)O[C@]1(CCN(C)CCCc2nc3ccccc3[nH]2)CCc2cc(F)ccc2[C@@H]1C(C)C`, for which the CC50 in assay [6] is 14.2 µM (active). Moreover, the IC50 in [15] is > 20 µM (inactive).

For the molecule `CN1CCN(/N=C/c2ccc(Cl)c(Cl)c2)CC1`, the EC50 is 34.9 µM (active) in assay [2], 31.7 µM (active) in [3] and 2.16 µM (active) in the assay with H4.

Regarding `COc1ccc(S(=O)(=O)N2CCN(C(=O)c3ccc([N+](=O)[O-])o3)CC2)cc1`, the EC50 in [13] was > 30 µM (not active); in [2], > 120 µM (not active); in [14], 0.103 µM (active); in assay [3], 7.51 µM (active); in the assay on H4, 7.96 µM (active).

Turning to `CCOc1ccccc1/C=c1\sc2ncnn2c1=O`, the IC50 in assay [1] was 48.7 µM (active).

Turning to `O=C(CSCC(=O)N1CCOCC1)Nc1nc(-c2ccc3c(c2)OCO3)cs1`, the EC50 in assay [2] is 86.3 µM (active); in assay [3] it was 56.1 µM (active); in the assay on H4, > 120 µM (not active).

Regarding `COc1ccc(C2Nc3ccc4ccccc4c3-c3c2c(=O)oc2ccccc32)cc1` (centres undefined), the EC50 was > 60 µM (not active) in assay [13], 9.13 µM (active) in assay [8], 9 µM (active) in assay [9] and 0.204 µM (active) in assay [14].

As for `O=C1C(/C=N/CCCN2CCCC2=O)=C(O)c2ccccc21`, the EC50 is 14.8 µM (active) in assay [2], 5.6 µM (active) in assay [3] and 12.9 µM (active) in the assay with H4.

`N#C/C(=C\c1ccc(-c2ccc(Br)cc2)o1)C(=O)NCCc1c[nH]c2ccccc12`: the CC50 in assay [6] was > 40 µM (active).

Turning to `COc1ccc(C(=O)N/N=C/C(=O)c2ccccc2)cc1`, the EC50 in [2] is 5.67 µM (active); in assay [3], 1.9 µM (active); in the assay with H4 it was 6.93 µM (active).

What is called IC50 is the point on the concentration scale where inhibition reaches its midpoint. The EC50 is the concentration that produces a half-maximal response.
